Assay results published in US20210300932A1, “CYCLIC PEPTIDES TARGETING ALPHA-4-BETA-7 INTEGRIN” (Zealand Pharma A/S, priority 2015, published 2021).

Assays:
in vivo = conditions: male, CD-1, mouse, po, 48 mg/kg
Experimental: In Vivo Pharmacokinetic Assessments in Rodents
Oral bioavailability of test compounds was conducted by assessing plasma exposure of following one or two oral doses in mice and, in some cases, comparing said plasma exposure with that following a single intravenous dose of the same compound.
Body weights were recorded on the day of dosing.
Food restriction: Animals dosed p.o. were deprived of food overnight and fed ˜2 h following dosing.
Dosing: The formulation containing the test compound were administered p.o. by gavage with disposable feeding needles.
Sample collection: Terminal blood and tissue samples were collected under O2/CO2 anesthesia by cardiac puncture.
Sample processing/storage: All blood samples were transferred into K2EDTA tubes on wet ice and centrifuged within 5 min (3200×g for 5 min at 4° C.) to obtain plasma. Samples were stored frozen at −80° C. until bioanalysis.
Bioanalytical Method Qualification and Sample Analysis:
Instrumentation: AB Sciex API 4000 Q-TRAP MS/MS system equipped with an Agilent LC system with a binary pump, a solvent degasser, a thermostatted column compartment, a CTC autosampler and a divert valve installed between the column and mass spectrometer inlet.

in vitro = conditions: Control buffer/Buffer at 0.1 uM % Recovery
Experimental: (§2) An equilibrium dialysis (HTDialysis) method was used employing 50% plasma collected from CD-1 mice or Sprague-Dawley rats and incubated with K2EDTA. Test articles were assessed at 1 microM concentration in three replicates. Incubation time as 5 hours and plasma and buffer standards were assessed using LC/MS/MS. Percentage recovery was calculated as (Cbuffer+Cplasma)/[average]Cinitial, [average]Cinitial being measured in triplicate from the test samples prior to dialysis. Percentage of compound unbound was calculated as Cbuffer/Cplasma.

[1] = Plasma protein binding determination, equilibrium dialysis, mouse plasma; conditions: first table
Experimental: as §2

plasma proteins = test: as above; conditions: CD-1, mouse, % recovery, Mouse plasma, equilibrium dialysis
Experimental: as §2

[2] = tested on: integrin alpha-4-beta-7-expressing T lymphocytes; test: In vivo T lymphocyte trafficking analyses in DSS-treated mice; set-up: species or system C57BI/6 mice
Experimental: In Vivo T Lymphocyte Trafficking Analyses
(§1) Animals. Female C57BI/6 mice (Charles River, St-Constant, Qc), weighting 16-19 g at delivery were used for this study. Following arrival in the animal facility, all animals were subjected to a general health evaluation. An acclimation period of 7-14 days was allowed before the beginning of the study.
Administration of DSS. Dextran sulfate sodium (DSS) was administered to C57B1/6 mice through addition to their drinking water at 2-3%. Mice accessed the DSS-treated water ad libitum over a 5-day period. Body weight and disease activity index (“DAI”) were measured on Day 5 in order to distribute DSS-treated animals in two uniform groups prior to dosing. Specific symptoms associated with colitis were scored based on the severity of each particular symptoms: 1—blood in stool (negative hemoccult, positive hemoccult, blood traces in stool visible, rectal bleeding); 2—stool consistency (normal, soft but still formed, very soft, diarrhea); 3—posture and fur (normal; ruffled fur; ruffled fur combined to slight hunched posture and slight dehydration; ruffled fur combined to hunched posture, dehydration and altered walking; moribund (euthanasia is mandatory before the animal reach this point). The overall DAI score was the sum of the three parameters (maximum score of 9). DAI assessment was performed on Day 5 only (prior to dosing). […]

Aqueous solubility assay = assay type: physicochemical; conditions: PBS pH 7.4, four hours, room temperature
Experimental: Solutions were incubated for four hours at room temperature and stirred at 600 rpm and run in triplicate. Centrifugation was performed for 15 minutes at 6000 rpm and solution concentration was determined using HPLC-UV (photodiode array detector acquiring between 220 nm, and 300 nm wavelengths).

[3] = tested on: DSS experimental model of ulcerative colitis; test: 8-Day efficacy study in DSS model (therapeutic); assay type: in vivo, C57BI/6 mice; conditions: for reduction of lesion length vs vehicle group / reduction of DAI score on Day 8 vs DSS+vehicle: Day 5 to Day 8
From the text: The STDs in ascending order bracketing the study samples and dosing solutions • 1. The study samples • 2.
Description of Tested Compounds
as §1
Oral dosing of the test article and the vehicle. From Day 5 to Day 8, nacellins and the vehicle were administered as a single slow bolus (over approximately 5 seconds) via oral route (p.o.), according to the procedure of administration of solution by gavage: the animal was firmly restrained. A bulb-tipped gastric gavage needle of 22G was passed through the side of the mouth and was advanced towards the oesophagus. The test articles and the vehicle were dosed orally at 5 mL/kg.
Intraperitoneal dosing of the test articles and the vehicle. On day 5, DATK32 antibody was administered in only on Day 5, as a single slow bolus (over approximately 5 seconds) via the i.p. route. […] Intraperitoneal administration was performed accordingly to the following procedure: the mouse was restrained manually and held with the head and body tilted downward. The tip of the needle (27 G) was inserted through the skin and just past the abdominal wall. A short pull back of the plunger of the syringe was done prior to administration of the solution to make sure that the syringe was not inserted in any abdominal organ (fluid would be pulled back into the syringe in this case).
Inflammation Score. Once the mouse was euthanized, the colon was collected and its length was measured. Lesion length was also measured. Colon inflammation was scored based on severity of oedema and ulceration.
Disease Activity Index (DAI) assessment. Body weight and DAI were measured on Day 5 in order to distribute DSS-treated animals in two uniform groups prior dosing. Specific symptoms associated to UC were scored based on the severity of each particular symptoms: 1—blood in stool (negative hemoccult, positive hemoccult, blood traces in stool visible, rectal bleeding); 2—stool consistency (normal, soft but still formed, very soft, diarrhea); 3—posture and fur (normal; ruffled fur; ruffled fur combined to slight hunched posture and slight dehydration; ruffled fur combined to hunched posture, dehydration and altered walking; moribund (euthanasia is mandatory before the animal reach this point). The overall DAI score was the sum of the three parameters (maximum score 9). Body weight measurement and DAI assessment were performed also on Day 8 to evaluate the effect of the treatments.
Collection of samples. On Day 8, five hours after ET02451-01, ET02452-01 and vehicle dosing, the animals were euthanized by cardiac puncture under general anesthesia, according to the “Guide to the Care and Use of Experimental Animals” published by the CCAC. Blood was transferred in a Sarstedt tube containing EDTA. Mesenteric and peripheral (inguinal, auxiliary and brachial) lymph nodes were collected and transferred on ice in corresponding tubes containing cold PBS. Nodes were kept on ice until tissue preparation.
Cell population labeling. Blood was withdrawn by cardiac puncture and collected on EDTA-coated tubes. Mensenteric lymph nodes (MLN) and peripheral lymph nodes (PLN) were also collected. Mononuclear cells from the tissues will be isolated using density gradient (Lympholyte) and they were stained with fluorescent antibodies. […] After washes, cells were fixed using BD Fix Solution. Percentage of different subpopulations of T lymphocytes were then analysed using FACSCalibur cytometer. Antibodies employed were the same as listed for the single-dose PD studies above.

Q: For `CC(C)C[C@@H]1NC(=O)[C@H](Cc2ccccc2)NC(=O)[C@@H]2CCCN2[C@H](C(=O)NC(C)(C)C)[C@H](C)NC(=O)[C@H]([C@@H](C)O)NC(=O)[C@H](CC(=O)O)NC1=O` [Compound No. 5], which Cmax (in vivo) is on record?
A: Its Cmax is roughly 1600 ng/mL.

Q: What about the recovery at 5 hours, 0.1 uM (in vitro) of the same compound?
A: The recovery at 5 hours, 0.1 uM was 108%.

Q: What about the “Control buffer/Buffer at 0.1 uM Cdonor/Creciever” value (shortened to “Control buffer/Buffer”) [1] of the same compound?
A: The value was 80%.

Q: What about the recovery at 5 hours, 1 microM (plasma proteins; first table) of the same compound?
A: The recovery at 5 hours, 1 microM was 130%.

Q: And the recovery at 5 hours, 1 microM (plasma proteins; second table)?
A: Its recovery at 5 hours, 1 microM is 97%.

Q: And the “homing to the MLN” value ([2]; single oral dose 100 mg/kg)?
A: The value was “significant reduction of homing”.

Q: Which recovery at 5 hours, 0.1 uM (in vitro) does the source give for `CC(C)C[C@@H]1NC(=O)[C@H](Cc2ccc(-c3ccccc3)cc2)NC(=O)[C@@H]2CCCN2[C@H](C(=O)NC(C)(C)C)[C@H](C)NC(=O)[C@H]([C@@H](C)O)NC(=O)[C@H](CC(=O)O)NC1=O` [Compound No. 12] here?
A: The recovery at 5 hours, 0.1 uM was 128%.

Q: What about the “Control buffer/Buffer” value [1] of the same compound?
A: Its value is 94%.

Q: And the recovery at 5 hours, 1 microM (plasma proteins; second table)?
A: The recovery at 5 hours, 1 microM was 89%.

Q: Which “Determined Concentration Rep 2” value (Aqueous solubility assay) does the source give for `CC(C)C[C@@H]1NC(=O)[C@@H](Cc2ccc(O)cc2)NC(=O)[C@@H]2CCCN2[C@H](C(=O)NC(C)(C)C)[C@H](C)NC(=O)[C@H]([C@@H](C)O)NC(=O)[C@H](CC(=O)O)NC1=O` [Compound No. 42] here?
A: The value was 960.0 µM.

Q: With `CC(C)C[C@@H]1NC(=O)[C@@H](Cc2ccncc2)NC(=O)[C@@H]2CCCN2[C@H](C(=O)NC(C)(C)C)[C@H](C)NC(=O)[C@H]([C@@H](C)O)NC(=O)[C@H](CC(=O)O)NC1=O` [Compound No. 62] as the compound, how does the “Determined Concentration Rep 2” value (Aqueous solubility assay) read?
A: The value was 988.2 µM.

Q: With `CC(C)C[C@@H]1NC(=O)C2(CCCC2)NC(=O)[C@@H]2CCCN2[C@H](C(=O)NC(C)(C)C)[C@H](C)NC(=O)[C@H]([C@@H](C)O)NC(=O)[C@H](CC(=O)O)NC1=O` [Compound No. 88] as the compound, how does the “Determined Concentration Rep 3” value (Aqueous solubility assay) read?
A: The value was 934.8 µM.

Q: With `CC(C)C[C@@H]1NC(=O)CN(C)C(=O)[C@H](Cc2ccc(O)cc2)NC(=O)[C@@H]2CCCN2[C@H](C(=O)NC(C)(C)C)[C@H](C)NC(=O)[C@H]([C@@H](C)O)NC(=O)[C@H](CC(=O)O)NC1=O` [Compound No. 105] as the compound, how does the “homing to the MLN” value ([2]; single oral dose 200 mg/kg) read?
A: Its value is “significant and robust attenuation of homing”.

Q: For `CC(C)C[C@@H]1NC(=O)c2ccc(-c3ccnc4ccccc34)c(c2)CNC(=O)[C@@H]2CCCN2[C@H](C(=O)NC(C)(C)C)[C@H](C)NC(=O)[C@H]([C@@H](C)O)NC(=O)[C@H](CC(=O)O)NC1=O` [Compound No. 341], which “reduction of lesion length vs vehicle group” value ([3]; 40 mg/kg p.o.) is on record?
A: Its value is 53%.

Q: And the “reduction of DAI score on Day 8 vs DSS+vehicle” value ([3]; 40 mg/kg p.o., b.i.d.)?
A: The value was “did not have any beneficial effect”.

Q: What about the “CD3+CD4+α4β7+ cell population in mesenteric lymph nodes” value ([3]; 65 mg/kg i.p.) of the same compound?
A: The value was “significant decrease”.

Q: What about the “reduction of colon inflammation score vs vehicle” value ([3]; 65 mg/kg i.p.) of the same compound?
A: The value was 39%.

Q: And the “reduction of DAI score on Day 8 vs DSS+vehicle” value ([3]; 65 mg/kg i.p.)?
A: Its value is 46%.

Q: What about the “reduction of lesion length vs vehicle group” value ([3]; 65 mg/kg i.p.) of the same compound?
A: The value was 20%.

Q: For `CC(C)C[C@@H]1NC(=O)[C@H](Cc2c[nH]c3ccccc23)NC(=O)[C@@H]2CCCN2[C@H](C(=O)NC(C)(C)C)[C@H](C)NC(=O)[C@H]([C@@H](C)O)NC(=O)[C@H](CC(=O)O)NC1=O` [ET00762], which “Control buffer/Buffer” value [1] is on record?
A: Its value is 79%.

Q: With `CC(C)NCC(O)COc1cccc2ccccc12` (stereo not drawn) [Propranalol, propranolol, reference compound] as the compound, how does the “% unbound (Cbuffer/Cplasma) 1” value ([1]; Mouse plasma, 1 microM, replicate 1) read?
A: The value was 22.8%.
